Measurements as given in patent US20150141367A1, “MODULATION OF GROWTH OF BIFIDOBACTERIA USING A COMBINATION OF OLIGOSACCHARIDES FOUND IN HUMAN MILK” (NESTEC S.A., priority 2011, published 2015).

How the values were obtained:
[1] = test system: Bifidobacterium Infantis ATCC 15697; test: Growth of bifidobacteria in RCM without glucose, optical density at 595 nm over 30 hours; type: cell-based; details: for growth in wells containing the test ingredient vs control medium: abs 595 nm; for effect on the growth of Bifidobacterium infantis (summary statement): summary in description
Protocol: (§1) Reinforced Clostridia Medium (RCM) was used for cultivating the bifidobacteria. RCM without glucose was used as a control medium. RCM is a well-known medium for cultivating and enumerating anaerobes, which was first formulated by Hirsch and Grinstead, J. Dairy Res., 21:101 (1954). The test ingredients were 2′-fucosyllactose, 6′-sialyllactose and 3′-sialyllactose dissolved in the control medium at the following concentrations: 1 mg/ml 2′-fucosyllactose; 1 mg/ml 6′-sialyllactose; and, 2 mg/ml 3′-sialyllactose. The bifidobacteria were separately grown overnight anaerobically in RCM, and were then measured and diluted to an optical density of 0.1 as measured by absorbance spectroscopy at 595 nm, and were then further diluted ten-fold to make a working stock. For each test, 50 μl of working stock was added to each well of a 96 well plate containing either 200 μl of control medium (48 wells) or 200 μl test ingredient solution (48 wells). The plate was grown anaerobically for 30 hours and optical density was read at abs 595 nm every 15 minutes. The values for like wells were averaged and plotted over time (FIGS. 1, 3, and 5-7), and the area under the curve (AUC) was calculated over the 30-hour period (FIGS. 2 and 4).

[2] = test system: Bifidobacterium Breve ATCC 15700; test: as above; type: cell-based
Protocol: as §1

SMILES | growth in wells containing the test ingredient vs control medium ([1]; 2 mg/ml 3′-sialyllactose, after grown for 8 hours, FIG. 7) | effect on the growth of Bifidobacterium infantis (summary statement) [1] | growth in wells containing the test ingredient vs control medium ([2]; 2 mg/ml 3′-sialyllactose, after grown for 6 hours, abs 595 nm, FIG. 6) | effect on the growth of Bifidobacterium breve (summary statement) ([2]; summary in description) | growth in wells containing the test ingredient vs control medium ([1]; 1 mg/ml 6′-sialyllactose, after grown for 12 hours, FIG. 5)
CC(=O)N[C@H]1[C@H]([C@H](O)[C@H](O)CO)O[C@@](O[C@H]2[C@@H](O)[C@@H](CO)O[C@@H](O[C@H]3[C@H](O)[C@@H](O)C(O)O[C@@H]3CO)[C@@H]2O)(C(=O)O)C[C@@H]1O (stereo partly drawn) [3′-sialyllactose] | significantly greater | stimulates the growth | significantly greater | stimulates the growth | 
CC(=O)N[C@H]1[C@H]([C@H](O)[C@H](O)CO)O[C@@](OC[C@H]2O[C@@H](O[C@H]3[C@H](O)[C@@H](O)[C@H](O)O[C@@H]3CO)[C@H](O)[C@@H](O)[C@H]2O)(C(=O)O)C[C@@H]1O [6′-sialyllactose] |  | stimulates the growth |  |  | significantly greater
